These results are taken from ChEMBL document CHEMBL1201862, “PubChem BioAssay data set” (2004).

Among the test systems are U-251; SK-MEL-28; SK-MEL-5; HCT-15; HCT-116; SF-539; NCI-H460; MDA-MB-435; CCRF-CEM; SF-268; EKVX; HOP-92; NCI/ADR-RES; MOLT-4; RXF 393; TK-10; Malme-3M; SW-620; HOP-62; SN12C.
Common to all, as to assay: NCI tumour cell line growth inhibition, 48 h

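96-well plates; 48 h exposure; 5 concentrations. Endpoints by linear interpolation between flanking doses. Not reached: highest tested concentration assigned. Here, GI50 denotes the concentration required for 50% inhibition of growth.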 Calls of active or inactive are those of the source. No stated cut-off is given here; in the data, active = GI50 up to about 1.1 µM and inactive = higher. Bounds are passed on as bounds.

Turning to `COc1cc2c(/C=C3/C(=O)N(C)c4ccc(O)cc43)c(Cl)[nH]c2cc1C`, the GI50 in the assay with U-251 was 0.402 µM (active); in the assay with SK-MEL-28, 2.22 µM (inactive); in the assay on SK-MEL-5, 0.282 µM (active); in the assay on HCT-15, 0.426 µM; with HCT-116 it was 0.361 µM (active); in the assay with SF-539, 0.248 µM (active). In addition, the GI50 in the assay on NCI-H460 was 0.454 µM (active); with MDA-MB-435 it was 0.0284 µM (active); in the assay on CCRF-CEM it was 0.284 µM (active); in the assay with SF-268, 2.07 µM (inactive); with EKVX it was 1.57 µM (inactive); in the assay on HOP-92, 17.2 µM (inactive). Moreover, the GI50 in the assay on NCI/ADR-RES was 0.703 µM (active); in the assay on MOLT-4, 0.209 µM (active); in the assay on RXF 393, 0.475 µM (active); in the assay with TK-10 it was 2.81 µM (inactive); in the assay on Malme-3M it was 0.179 µM (active); in the assay with SW-620, 0.361 µM (active). Further, the GI50 in the assay on HOP-62 is 0.327 µM (active); in the assay on SN12C, 0.776 µM (active).
Consider `O=C(N/N=C\c1cccc2c([N+](=O)[O-])cccc12)Nc1ccccc1`, for which the GI50 in the assay on U-251 was 7.08 µM (inactive); in the assay with SK-MEL-28 it was 16.4 µM (inactive); in the assay with SK-MEL-5 it was 14.1 µM (inactive); with HCT-15, 11.2 µM; with HCT-116 it was 5.37 µM (inactive); with SF-539, 11.5 µM (inactive). The GI50 in the assay with NCI-H460 was 14.2 µM (inactive); in the assay on MDA-MB-435 it was 9.29 µM (inactive); with CCRF-CEM, 10.5 µM (inactive); with SF-268 it was 21.6 µM (inactive); in the assay with EKVX it was 15.5 µM (inactive); with HOP-92, 12.3 µM (inactive). The GI50 in the assay on NCI/ADR-RES is 12.4 µM (inactive); in the assay with MOLT-4, 13.4 µM (inactive); with RXF 393 it was 7.53 µM (inactive); in the assay with TK-10, 11.7 µM (inactive); in the assay on Malme-3M, 14.1 µM (inactive); with SW-620, 13.2 µM (inactive). In addition, the GI50 in the assay with HOP-62 was 16.2 µM (inactive); in the assay on SN12C it was 4.59 µM (inactive).
As to `Cc1cccc2c(=O)c3c(O)cc(O)cc3n(C)c12`, the GI50 was > 100 µM (inactive) in the assay on U-251; > 100 µM (inactive) in the assay on SK-MEL-28; > 100 µM (inactive) with SK-MEL-5; over 100 µM in the assay with HCT-15; > 100 µM (inactive) in the assay with HCT-116; > 100 µM (inactive) in the assay on SF-539. For the same molecule, the GI50 with NCI-H460 is > 100 µM (inactive); with MDA-MB-435 it was > 100 µM (inactive); in the assay on CCRF-CEM it was > 100 µM (inactive); with SF-268, > 100 µM (inactive); in the assay with EKVX, 7.41 µM (inactive); in the assay on HOP-92, 91.4 µM (inactive). In addition, the GI50 with NCI/ADR-RES, in the assay with MOLT-4, in the assay with RXF 393, with TK-10, with Malme-3M and with SW-620 was > 100 µM (inactive) each time. Besides, the GI50 in the assay with HOP-62 and with SN12C was > 100 µM (inactive) each time.
`COC(=O)[C@@]12CC[C@]1(C(=O)OC)C1C(C)=CC(=O)O[C@@]12C` (stereo not given in full): the GI50 was > 100 µM (inactive) in the assay with U-251; > 100 µM (inactive) in the assay with SK-MEL-28; > 100 µM (inactive) in the assay with SK-MEL-5; over 100 µM with HCT-15; > 100 µM (inactive) with HCT-116; > 100 µM (inactive) with SF-539. In addition, the GI50 in the assay with NCI-H460, in the assay with MDA-MB-435, with CCRF-CEM, in the assay on SF-268, with EKVX and with HOP-92 was > 100 µM (inactive) each time. Further, the GI50 in the assay with NCI/ADR-RES, in the assay with MOLT-4, in the assay on RXF 393, in the assay with TK-10, in the assay on Malme-3M and in the assay with SW-620 was > 100 µM (inactive) each time. The GI50 in the assay with HOP-62 and in the assay on SN12C was > 100 µM (inactive) in each case.
Take `CC(C)(C)OC(=O)NC(CS(=O)(=O)O)C(=O)O` (stereo not given): the GI50 in the assay with U-251 is > 100 µM (inactive); in the assay on SK-MEL-28 it was > 100 µM (inactive); in the assay on SK-MEL-5, > 100 µM (inactive); with HCT-15, over 100 µM; with HCT-116, > 100 µM (inactive); in the assay on SF-539, > 100 µM (inactive). Moreover, the GI50 with NCI-H460, in the assay on MDA-MB-435, in the assay on CCRF-CEM, in the assay with SF-268, with EKVX and in the assay on HOP-92 was > 100 µM (inactive) each time. Also, the GI50 in the assay with NCI/ADR-RES, in the assay on MOLT-4, in the assay with RXF 393, in the assay on TK-10, in the assay on Malme-3M and in the assay with SW-620 was > 100 µM (inactive) in each case. Moreover, the GI50 in the assay on HOP-62 and with SN12C was > 100 µM (inactive) in each case.
Turning to `COc1ccc2cc(CNCCCN3CCN(CCCNCc4ccc5cc(OC)ccc5c4)CC3)ccc2c1`, the GI50 was 1.75 µM (inactive) in the assay on U-251; 1.71 µM (inactive) in the assay on SK-MEL-28; 1.69 µM (inactive) in the assay on SK-MEL-5; 1.57 µM in the assay on HCT-15; 1.26 µM (inactive) in the assay on HCT-116; 1.81 µM (inactive) in the assay with SF-539. The GI50 is 0.83 µM (active) in the assay on NCI-H460; 1.6 µM (inactive) with MDA-MB-435; 0.45 µM (active) with CCRF-CEM; 1.77 µM (inactive) with SF-268; 1.73 µM (inactive) in the assay on EKVX; 1.43 µM (inactive) in the assay with HOP-92. Besides, the GI50 in the assay on NCI/ADR-RES was 2.21 µM (inactive); in the assay with MOLT-4, 0.859 µM (active); with RXF 393, 1.46 µM (inactive); with TK-10 it was 1.89 µM (inactive); with Malme-3M, 1.72 µM (inactive); with SW-620, 0.327 µM (active). The GI50 with HOP-62 was 1.65 µM (inactive); in the assay with SN12C, 1.69 µM (inactive).
Consider `OC(C1=C/C(=C\c2ccncc2)c2ccccc21)c1ccncc1` (stereo not given), for which the GI50 is 14.7 µM (inactive) in the assay on U-251; 14.3 µM (inactive) in the assay on SK-MEL-28; 3.21 µM (inactive) in the assay on SK-MEL-5; 16.5 µM with HCT-15; 13.6 µM (inactive) in the assay with HCT-116; 13.9 µM (inactive) with SF-539. The GI50 is 12.9 µM (inactive) with NCI-H460; 12 µM (inactive) in the assay with MDA-MB-435; 7.41 µM (inactive) in the assay on CCRF-CEM; 18.5 µM (inactive) in the assay with SF-268; 5.65 µM (inactive) with EKVX; 13.6 µM (inactive) with HOP-92. In addition, the GI50 in the assay on NCI/ADR-RES is 14.6 µM (inactive); in the assay on MOLT-4, 5.71 µM (inactive); with RXF 393, 14 µM (inactive); with TK-10 it was 13.6 µM (inactive); in the assay on Malme-3M, 15.1 µM (inactive); with SW-620, 23 µM (inactive). Besides, the GI50 is 10.2 µM (inactive) in the assay with HOP-62 and 13.9 µM (inactive) in the assay on SN12C.
Turning to `COc1cc(-c2cc(=O)c3c(OC)c(OC)c(OC)c(OC)c3o2)c(OC)c(OC)c1OC`, the GI50 was 48.1 µM (inactive) with U-251; 42.5 µM (inactive) in the assay on SK-MEL-28; 36.1 µM (inactive) in the assay on SK-MEL-5; 30.3 µM in the assay on HCT-15; 30.7 µM (inactive) in the assay with HCT-116; 47.8 µM (inactive) in the assay with SF-539. Further, the GI50 with NCI-H460 was 36.1 µM (inactive); in the assay on MDA-MB-435 it was 45.8 µM (inactive); in the assay with CCRF-CEM, 50.7 µM (inactive); in the assay with SF-268 it was 63.1 µM (inactive); in the assay with EKVX, 66.8 µM (inactive); with HOP-92, 13.9 µM (inactive). For the same molecule, the GI50 in the assay with NCI/ADR-RES was 17.9 µM (inactive); with MOLT-4, 72.6 µM (inactive); with RXF 393, 28.6 µM (inactive); with TK-10, 61.7 µM (inactive); with Malme-3M, 23.8 µM (inactive); in the assay on SW-620, 45.3 µM (inactive). Besides, the figures for the GI50 in the assay with HOP-62 and with SN12C were > 100 µM (inactive) and 35.2 µM (inactive), respectively.
Turning to `CN1c2ccc(O)c(O)c2-c2cc(O)cc3c2C1CCC3` (stereo not given), the GI50 is 23.4 µM (inactive) with U-251; 20.8 µM (inactive) in the assay with SK-MEL-28; 15.7 µM (inactive) in the assay with SK-MEL-5; 20.6 µM with HCT-15; 14.6 µM (inactive) in the assay on HCT-116; 21.6 µM (inactive) with SF-539. Moreover, the GI50 with NCI-H460 was 23.9 µM (inactive); in the assay on MDA-MB-435 it was 15.6 µM (inactive); with CCRF-CEM, 2.58 µM (inactive); in the assay on SF-268 it was 14.2 µM (inactive); with EKVX, 20.7 µM (inactive); in the assay on HOP-92, 13.9 µM (inactive). Moreover, the GI50 in the assay on NCI/ADR-RES was 18 µM (inactive); with MOLT-4, 7.4 µM (inactive); with RXF 393, 7.23 µM (inactive); in the assay on TK-10, 18 µM (inactive); in the assay with Malme-3M it was 15.9 µM (inactive); in the assay on SW-620 it was 17.5 µM (inactive). In addition, the figures for the GI50 with HOP-62 and in the assay with SN12C were 14.1 µM (inactive) and 17.5 µM (inactive), respectively.
